Data set [1] in a line: Degradation of suxamethonium depending on pH. In kind it is physicochemical. The note with it: pH 5.0 vs pH 3.5.
The nature of data set [2]: Sensitivity of suxamethonium to oxidizing conditions. It is filed as physicochemical.

`C[N+](C)(C)CCOC(=O)CCC(=O)OCC[N+](C)(C)C` [suxamethonium]: the “degradation depending on pH” value in data set [1] was “faster at pH 5.0 than at pH 3.5”. Also, in data set [2], the “sensitivity to oxidizing conditions” value is reported as “not sensitive to oxidizing conditions”.

The record behind these values is patent US20230233453A1, “SUXAMETHONIUM COMPOSITION AND PREFILLED SYRINGE THEREOF” (LABORATOIRE AGUETTANT, priority 2020, published 2023).
